Experimental data taken from US20260085067A1, “CYCLIC SULFONAMIDE RIBONUCLEOTIDE REDUCTASE (RNR) INHIBITORS AND USES THEREOF” (Boundless Bio, Inc., priority 2022, published 2026).

Columns and labels:
[1] = target: T1, RNR (RNR1:RNR2 1:1) (Homo sapiens, UniProt P23921); assay: RNR enzyme activity, rapid-fire mass spectrometry (RF/MS) assay; format: biochemical; settings: [RNR] 50 nM, 1:1 RNR1:RNR2; CDP 5 μM; ATP 1 mM; 37° C., 45 min; compounds screened up to 50 μM
T1 sequence (P23921 1-792): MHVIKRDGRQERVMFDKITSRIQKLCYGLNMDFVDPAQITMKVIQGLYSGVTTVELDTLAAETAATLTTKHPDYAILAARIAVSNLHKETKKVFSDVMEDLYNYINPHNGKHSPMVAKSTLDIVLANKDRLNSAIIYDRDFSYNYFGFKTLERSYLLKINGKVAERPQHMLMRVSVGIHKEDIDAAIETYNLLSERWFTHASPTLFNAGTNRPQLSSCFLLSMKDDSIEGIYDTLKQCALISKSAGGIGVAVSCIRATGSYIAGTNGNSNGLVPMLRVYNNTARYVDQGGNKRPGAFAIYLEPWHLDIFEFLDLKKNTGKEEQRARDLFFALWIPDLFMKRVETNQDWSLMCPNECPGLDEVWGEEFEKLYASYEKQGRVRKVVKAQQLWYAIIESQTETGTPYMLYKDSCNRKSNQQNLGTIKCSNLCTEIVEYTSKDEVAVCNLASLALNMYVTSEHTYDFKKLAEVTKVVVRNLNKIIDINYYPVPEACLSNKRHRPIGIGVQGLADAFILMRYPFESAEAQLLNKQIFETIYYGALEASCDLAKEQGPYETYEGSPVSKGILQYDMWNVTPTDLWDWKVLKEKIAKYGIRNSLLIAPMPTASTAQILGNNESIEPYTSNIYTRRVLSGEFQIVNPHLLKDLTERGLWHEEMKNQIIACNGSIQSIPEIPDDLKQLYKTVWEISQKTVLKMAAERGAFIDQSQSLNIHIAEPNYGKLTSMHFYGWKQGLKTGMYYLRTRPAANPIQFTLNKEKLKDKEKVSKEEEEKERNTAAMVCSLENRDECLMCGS
Method: A rapid-fire mass spectrometry (RF/MS) assay was used to assess RNR enzyme activity using a 384 well plate and a robotic platform.
The plate layout included two validated reference compounds (Triapine (3-AP) and Hydroxyurea (HU)): • A dose response in duplicate; top concentration: 5 μM (3-AP) and 250 μM (HU), semi-log dilutions. • Spike wells in triplicate randomly spotted at four concentrations: • 250 μM, 100 μM, 30 μM and 2 μM for HU • 5 μM, 2 μM, 0.6 μM and 0.04 μM for 3-AP
First, the multidrop pipes were saturated for 30 minutes with enzymatic solution. Then 30 μL of Stop solution was distributed in column 24. Next, 15 μL of enzyme was distributed in column 1 to 24. Next, a pre-incubation step of 15 minutes at room temperature occurred, followed by distribution of 15 μL of substrate solution (column 1 to 24). Next, the plate was incubated for 45 minutes at 37° C. 30 μL of Stop solution was then distributed to columns 1 to 23.
The final parameters for the enzyme reactions were: • Incubation: 37° C., 45 min • [CDP]: 5 μM; [ATP]: 1 mM; [NADPH]: No • [RNR]final: 50 nM with 1:1 (RNR1:RNR2) ratio • Final volume: 30 μL • Stop solution: 6% HCOOH in water

[2] = test system: pCHK1 (S345) in Colo320 DM cells; assay: Alphalisa assay, detection of pCHK1 (S345) in Colo320 DM cells; format: cell-based, human; settings: Homo sapiens, COLO 320DM, compound overnight (approximately 16 hours)
Method: Colo320 DM cells (ATCC #CCL-220, derived from human colorectal adenocarcinoma, Dukes' type C) were seeded on a […], cell culture treated assay plate at a density of 50,000 cells/well in 200 μL of RPMI-1640 media supplemented with 10% Fetal Bovine Serum and incubated at 37° C. overnight. The following day, test compound dilutions were added directly to the plated cells by a Tecan digital dispenser to a final DMSO concentration of <0.5%. and incubated at 37° C. overnight (approximately 16 hours). The following day all cell culture media was removed from the cells. 75 μL of 1×AlphaLisa lysis buffer was added to each well and plates were agitated on a shaker for 30 minutes at room temperature. The lysis of cells and detection of pCHK1 (S345) were performed with reagents contained within the AlphaLisa Sure Fire assay kit (Perkin Elmer #ALSU-PCHK1-A) according to the manufacturer's instructions. 10 μL of each lysate was then transferred to a white, 384-well assay plate (Perkin Elmer #6008280). 5 μL of Acceptor mix was then added to each well of lysate in the white, 384-well assay plate and incubated in the dark at room temperature for 60 minutes. 5 μL of Donor mix was then added to each well of the white, 384-well assay plate in subdued light and incubated at room temperature for 60 minutes. Plates were read on an Alpha Technology-compatible plate reader using standard AlphaLisa settings.

Structure (SMILES) | IC50 [1] [µM] | IC50 [2] [µM]
COC(=O)c1cc(Cl)cc2c1S(=O)(=O)N([C@H](c1n[nH]c(=O)o1)[C@H](C)c1c(F)ccc(C)c1C)CN2C [Example 19, methyl 6-chloro-2-((1S,2R)-2-(6-fluoro-2,3-dimethylphenyl)-1-(5-oxo-4,5-dihydro-1,3,4-oxadiazol-2-yl)propyl)-4-methyl-3,4-dihydro-2H-benzo[e][1,2,4]thiadiazine-8-carboxylate 1,1-dioxide] | 0.02 to 0.1 | 1 to 5
Cc1ccc(F)c([C@@H](C)[C@@H](c2n[nH]c(=O)o2)N2C3CCCN3c3cc(Cl)ccc3S2(=O)=O)c1C (stereo partly drawn) [Example 20, 5-((1S,2R)-1-(8-chloro-5,5-dioxido-1,2,3,3a-tetrahydro-4H-benzo[e]pyrrolo[2,1-c][1,2,4]thiadiazin-4-yl)-2-(6-fluoro-2,3-dimethylphenyl)propyl)-1,3,4-oxadiazol-2 (3H)-one] | < 0.02 | 1 to 5
Cc1ccc(F)c([C@@H](C)[C@@H](c2n[nH]c(=O)o2)N2CCNc3cc(Cl)ccc3S2(=O)=O)c1C [Example 21, 5-((1S,2R)-1-(7-chloro-1,1-dioxido-4,5-dihydrobenzo[f][1,2,5]thiadiazepin-2 (3H)-yl)-2-(6-fluoro-2,3-dimethylphenyl)propyl)-1,3,4-oxadiazol-2 (3H)-one] | 0.02 to 0.1 | 1 to 5
Cc1ccc(F)c([C@@H](C)[C@@H](c2n[nH]c(=O)o2)N2CN(C)c3cc(Cl)cc(C(N)=O)c3S2(=O)=O)c1C [Example 22, 6-chloro-2-((1S,2R)-2-(6-fluoro-2,3-dimethylphenyl)-1-(5-oxo-4,5-dihydro-1,3,4-oxadiazol-2-yl)propyl)-4-methyl-3,4-dihydro-2H-benzo[e][1,2,4]thiadiazine-8-carboxamide 1,1-dioxide] | < 0.02 | ≤ 1
Cc1ccc(F)c([C@@H](C)[C@@H](c2n[nH]c(=O)o2)N2CCOc3cc(Cl)cc(C(N)=O)c3S2(=O)=O)c1C [Example 23, 7-chloro-2-((1S,2R)-2-(6-fluoro-2,3-dimethylphenyl)-1-(5-oxo-4,5-dihydro-1,3,4-oxadiazol-2-yl)propyl)-3,4-dihydro-2H-benzo[b][1,4,5]oxathiazepine-9-carboxamide 1,1-dioxide] | < 0.02 | 1 to 5
Cc1ccc(F)c([C@@H](C)[C@@H](c2n[nH]c(=O)o2)N2CCOc3cc(Cl)cc(C)c3S2(=O)=O)c1C [Example 24, 5-((1S,2R)-1-(7-chloro-9-methyl-1,1-dioxido-3,4-dihydro-2H-benzo[b][1,4,5]oxathiazepin-2-yl)-2-(6-fluoro-2,3-dimethylphenyl)propyl)-1,3,4-oxadiazol-2 (3H)-one] | 0.1 to 1 | > 50
CC(=O)c1c(Cl)ccc2c1OCCN([C@H](c1n[nH]c(=O)o1)[C@H](C)c1c(F)ccc(C)c1C)S2(=O)=O [Example 25, 5-((1S,2R)-1-(6-acetyl-7-chloro-1,1-dioxido-3,4-dihydro-2H-benzo[b][1,4,5]oxathiazepin-2-yl)-2-(6-fluoro-2,3-dimethylphenyl)propyl)-1,3,4-oxadiazol-2 (3H)-one] | < 0.02 | 1 to 5
Cc1ccc(F)c([C@@H](C)[C@@H](c2n[nH]c(=O)o2)N2CCOc3cc(Cl)ncc3S2(=O)=O)c1C [Example 27, 5-((1S,2R)-1-(7-chloro-1,1-dioxido-3,4-dihydro-2H-pyrido[4,3-b][1,4,5]oxathiazepin-2-yl)-2-(6-fluoro-2,3-dimethylphenyl)propyl)-1,3,4-oxadiazol-2 (3H)-one] | 1 to 10 | 10 to 50
Cc1ccc(F)c([C@@H](C)[C@@H](c2n[nH]c(=O)o2)N2CN(C)c3c(ccc(Cl)c3C)S2(=O)=O)c1C [Example 32, 5-((1S,2R)-1-(6-chloro-4,5-dimethyl-1,1-dioxido-3,4-dihydro-2H-benzo[e][1,2,4]thiadiazin-2-yl)-2-(6-fluoro-2,3-dimethylphenyl)propyl)-1,3,4-oxadiazol-2 (3H)-one] | 0.02 to 0.1 | 10 to 50
Cc1ccc(F)c([C@@H](C)[C@@H](c2n[nH]c(=O)o2)N2CN(C)C(=O)c3cc(Cl)ccc3S2(=O)=O)c1C [Example 35, 5-((1S,2R)-1-(7-chloro-4-methyl-1,1-dioxido-5-oxo-4,5-dihydrobenzo[f][1,2,4]thiadiazepin-2 (3H)-yl)-2-(6-fluoro-2,3-dimethylphenyl)propyl)-1,3,4-oxadiazol-2 (3H)-one] | 0.02 to 0.1 | 10 to 50

More lines, now with the values ahead:

IC50 [1] [µM] | IC50 [2] [µM] | Structure (SMILES)
0.02 to 0.1 | 10 to 50 | Cc1ccc(F)c([C@@H](C)[C@@H](c2n[nH]c(=O)o2)N2CN(C)c3cc(Cl)cc(C)c3S2(=O)=O)c1C [Example 26, 5-((1S,2R)-1-(6-chloro-4,8-dimethyl-1,1-dioxido-3,4-dihydro-2H-benzo[e][1,2,4]thiadiazin-2-yl)-2-(6-fluoro-2,3-dimethylphenyl)propyl)-1,3,4-oxadiazol-2 (3H)-one]
< 0.02 | ≤ 1 | COCCCN1CN([C@H](c2n[nH]c(=O)o2)[C@H](C)c2c(F)ccc(C)c2C)S(=O)(=O)c2ccc(Cl)cc21 [Example 30, 5-((1S,2R)-1-(6-chloro-4-(3-methoxypropyl)-1,1-dioxido-3,4-dihydro-2H-benzo[e][1,2,4]thiadiazin-2-yl)-2-(6-fluoro-2,3-dimethylphenyl)propyl)-1,3,4-oxadiazol-2 (3H)-one]
< 0.02 | ≤ 1 | Cc1ccc(F)c([C@@H](C)[C@@H](c2n[nH]c(=O)o2)N2CN(C3CCOCC3)c3cc(Cl)ccc3S2(=O)=O)c1C [Example 33, 5-((1S,2R)-1-(6-chloro-1,1-dioxido-4-(tetrahydro-2H-pyran-4-yl)-3,4-dihydro-2H-benzo[e][1,2,4]thiadiazin-2-yl)-2-(6-fluoro-2,3-dimethylphenyl)propyl)-1,3,4-oxadiazol-2 (3H)-one]
< 0.02 | 1 to 5 | Cc1ccc(F)c([C@@H](C)[C@@H](c2n[nH]c(=O)o2)N2CN(CCCN(C)C)c3cc(Cl)ccc3S2(=O)=O)c1C [Example 34, 5-((1S,2R)-1-(6-chloro-4-(3-(dimethylamino)propyl)-1,1-dioxido-3,4-dihydro-2H-benzo[e][1,2,4]thiadiazin-2-yl)-2-(6-fluoro-2,3-dimethylphenyl)propyl)-1,3,4-oxadiazol-2 (3H)-one]
< 0.02 | 1 to 5 | Cc1ccc(F)c([C@@H](C)[C@@H](c2n[nH]c(=O)o2)N2CCOc3c(ccc(Cl)c3C)S2(=O)=O)c1C [Example 36, 5-((1S,2R)-1-(7-chloro-6-methyl-1,1-dioxido-3,4-dihydro-2H-benzo[b][1,4,5]oxathiazepin-2-yl)-2-(6-fluoro-2,3-dimethylphenyl)propyl)-1,3,4-oxadiazol-2 (3H)-one]
1 to 10 | > 50 | Cc1ccc(F)c([C@@H](C)[C@@H](c2n[nH]c(=O)o2)N2CN(C)c3cc(Cl)cc(C(=O)N(C)C)c3S2(=O)=O)c1C [Example 37, 6-chloro-2-((1S,2R)-2-(6-fluoro-2,3-dimethylphenyl)-1-(5-oxo-4,5-dihydro-1,3,4-oxadiazol-2-yl)propyl)-N,N,4-trimethyl-3,4-dihydro-2H-benzo[e][1,2,4]thiadiazine-8-carboxamide 1,1-dioxide]
